Values after ≈ are worked out from the molar mass of the structure shown. Like-named read-outs stand apart in the source and are kept apart here.
Key:
[1] = system: E. histolytica HM1:IMSS trophozoites; assay: ATP-bioluminescence growth and survival assay, E. histolytica; type: cell-based, Entamoeba histolytica; details: Entamoeba histolytica; MtzS, 48 h, anaerobic, n = 3
Method: (§1) Compounds were tested for antiparasitic activity against E. histolytica (HM1:1MSS strain) and G. lamblia (WB, BRIS/87/HEPU/713 (713), BRIS/83/HEPU/106 (106) and the metronidazole resistant syngeneic line 713-M3 [[15,16]]) using an ATP-bioluminescence based screen for cell growth and survival [[17,18]]. Assay plates were inoculated with trophozoites (5 × 10^3 parasites/well) and incubated in the GasPak™ EZ Anaerobe Gas Generating Pouch Systems (VWR, West Chester, PA) to maintain anaerobic conditions throughout the incubation period. The assays were performed in triplicate using the CellTiter-Glo Luminescent Cell Viability Assay. Metronidazole was used as a positive control.
(§2) Trophozoites of E. histolytica strain HM1:IMSS and G. lamblia strains WB, BRIS/87/HEPU/713 (713),^10 BRIS/83/HEPU/106 (106)^11 and the metronidazole resistant syngenic line 713-M3^10,11 were axenically maintained in TYI-S-33 medium supplemented with penicillin (100 U/ml), streptomycin (100 µg/ml).^12 E. histolytica and G. lamblia trophozoites were counted using a particle counter (Beckman Coulter, Fullerton, CA). All experiments were performed using trophozoites harvested during the logarithmic phase of growth.
(§3) A three-fold serial dilution was then performed yielding a concentration range 0.25-625 µM. From this dilution plate, 4 µL were transferred into the 96-well screen plates followed by addition of 96 µL of trophozoites (5,000 parasites) to yield a final 8-point concentration range spanning 0.01- 25 µM. Assay plates were incubated for 48 h at 37 °C in the GasPak^TM EZ Anaerobe Gas Generating Pouch Systems (VWR, West Chester, PA) to maintain anaerobic condition throughout the incubation period. The assays were performed in triplicate using the CellTiter-Glo Luminescent Cell Viability Assay.^13

[2] = system: G. lamblia BRIS/87/HEPU/713 (713); assay: ATP-bioluminescence growth and survival assay, G. lamblia 713; type: cell-based; details: Giardia duodenalis, read-out: EC50 G. lamblia 713
Method: as §1, §2, §3

[3] = system: C. difficile NAP1/027 CD26A54_R; assay: MIC broth microdilution, metronidazole resistant C. difficile CD26A54_R; type: cell-based, Clostridium difficile; details: Clostridioides difficile
[4] = system: C. difficile NAP1/027 CD26A54_S; assay: MIC broth microdilution, C. difficile CD26A54_S; type: cell-based, Clostridium difficile; details: Clostridioides difficile
[5] = system: C. difficile NAP1/027 ATCC BAA-1803; assay: MIC broth microdilution, C. difficile NAP1/027 ATCC BAA-1803; type: cell-based, Clostridium difficile; details: Clostridioides difficile
Method: All compounds were tested for activity against a set of anaerobic C. difficile bacteria (630 ATCC BAA-1382, NAP1/027 M7404, NAP1/027 ATCC BAA-1803, VPI10463 ATCC 43255, CD26A54_S and CD26A54_R) and representative ESKAPE pathogens S. aureus (MRSA ATCC 43300), E. coli (ATCC 25922), K. pneumoniae (ATCC 700603), A. baumannii (ATCC 19606) and P. aeruginosa (ATCC 27853) using a standard broth microdilution assay. Selected compounds were tested for activity against H. pylori strains (26695, and clinical isolates MtzS 13/25, MtzR 98/285 and MtzR 13/61) using agar plate dilution, and for antimicrobial activity against […] Gram-positive bacterial strains: Enterococcus faecalis (VanA clinical isolate), Enterococcus faecium (MDR VanA ATCC 51559), Streptococcus pneumoniae (MDR ATCC 700677), S. aureus (MRSA ATCC 43300, MRSA clinical isolate, MRSA/DRSA clinical isolate, GISA NARSA NRS 1, GISA NARSA NRS 17, VRSA NARSA VRS1, VRSA NARSA VRS4 and VRSA NARSA VRS10) using broth microdilution. C. difficile strains were grown at 37 °C in a COY anaerobic chamber (5% H2, 10% CO2, 85% N2). H. pylori strains were grown at 37 °C under a microaerobic atmosphere (5% O2, 10% CO2). All facultative anaerobic bacteria were grown at 37 °C with normal atmospheric oxygen levels. All experiments were performed in duplicate with metronidazole, vancomycin, linezolid or colistin as positive controls for relevant strains (see Table 1). Positive growth control of bacteria and DMSO as well as a negative control of only media were included for every plate. Full assay details are provided in the supplementary information.
C. difficile ATCC BAA-1382, ATCC BAA-1803, ATCC 43255 and M7404 heat shocked spore stocks (10 µL) were transferred into the anaerobic chamber and 10 µL streaked onto pre-reduced (at least 2.5 hr in anaerobic chamber) BHIS agar plates supplemented with 0.1% w/v sodium taurocholate (BHIS(TA)). Plates were incubated for 24 hours prior to assay to give colonies of size 1-3mm diameter with characteristic uneven borders.
The minimum inhibition concentration was determined according to the CLSI Methods with modifications in broth and inoculum for C. difficile according to Babakhani et al.^7,8 Briefly, compounds were prepared to 20X final concentration in 100% water, 60% DMSO and 40% water or 60% DMSO and 40% media. The compounds along with standard antibiotics were serially diluted two-fold across the wells of 96-well non-binding surface plates (Non binding surface, Corning). The plates were placed in the anaerobic chamber overnight to reduce. C. difficile bacteria from BHIS(TA) agar plates were cultured anaerobically in BHIS at 37 °C overnight. A sample of culture was then diluted 40-fold in BHIS broth and incubated at 37 °C for approximately 4.5 hrs. The resultant mid-log phase culture (OD600= 0.5-0.6) was diluted to the final concentration of ~1×10^6 CFU/mL, then 50 µL was added to each well of the compound-containing 96-well plates. This gave final cell concentration of 5×10^5 CFU/mL, final volume 100 µL and 3% maximum DMSO concentration. Compound concentration was typically from 64 to 0.03 µg/mL. An antibiotic standard was included on each 96 well plate as well as a positive growth control (no compound) and sterility control (no bacteria). […] MICs were the lowest concentration showing no visible growth.

[6] = system: G. lamblia WB trophozoites; assay: ATP-bioluminescence growth and survival assay, G. lamblia WB; type: cell-based, Giardia lamblia; details: Giardia duodenalis; MtzS, 48 h, anaerobic, n = 3
Method: as §1, §2, §3

[7] = 24 hr incubation, read-out: MIC C. difficile NAP1/027 CD26A54_R 24 hr
[8] = CD26A54_R, MtzR, 48 h growth, BHIS broth, n = 8, read-out: MIC C. difficile NAP1/027 CD26A54_R 48 h
[9] = 24 hr incubation, read-out: MIC C. difficile NAP1/027 CD26A54_S 24 hr
[10] = CD26A54_S, MtzS (intermediary), 48 h growth, read-out: MIC C. difficile NAP1/027 CD26A54_S 48 h
[11] = ATCC 43255 / ATCC BAA-1803, NAP1/027 (footnote c: ATCC 43255), MtzS, 24 h, median of at least n = 4, read-out: MIC C. difficile NAP1/027 (footnote c)
[12] = ATCCBAA1803, 24 hr incubation, read-out: MIC C. difficile NAP1/027 ATCC BAA-1803 24 hr
[13] = ATCCBAA1803, 48 hr incubation, read-out: MIC C. difficile NAP1/027 ATCC BAA-1803 48 hr

SMILES | EC50 [1] [nM] | EC50 [2] [nM] | MIC [3, 7] [µg/mL] | MIC [3, 8] [µg/mL] | MIC [4, 9] [µg/mL] | MIC [4, 10] [µg/mL] | MIC [5, 11] [µg/mL] | MIC [5, 12] [µg/mL] | MIC [5, 13] [µg/mL] | EC50 [6] [nM]
Cc1ncc([N+](=O)[O-])n1CCn1cc(-c2ccccc2)nn1 [Compound 4a, 1-(2-(2-methyl-5-nitro-1H-imidazol-1-yl)ethyl)-4-phenyl-1H-1,2,3-triazole] | 4200 | 160 | 2 (≈ 6.7 µM) | 2 (≈ 6.7 µM) | 1 (≈ 3.35 µM) | 1 (≈ 3.35 µM) | 0.5 (≈ 1.68 µM) | 0.5 (≈ 1.68 µM) | 0.5 (≈ 1.68 µM) | 250
COc1ccc(-c2cn(CCn3c([N+](=O)[O-])cnc3C)nn2)cc1 [Compound 4b, 1-(2-(2-methyl-5-nitro-1H-imidazol-1-yl)ethyl)-4-(4-methoxyphenyl)-1H-1,2,3-triazole] | 4800 | 640 | 4 (≈ 12.2 µM) | 4 (≈ 12.2 µM) | 1 (≈ 3.05 µM) | 1 (≈ 3.05 µM) | 0.5 (≈ 1.52 µM) | 0.5 (≈ 1.52 µM) | 0.5 (≈ 1.52 µM) | 270
Cc1ncc([N+](=O)[O-])n1CCn1cc(-c2ccc(Cl)cc2)nn1 [Compound 4c, 1-(2-(2-methyl-5-nitro-1H-imidazol-1-yl)ethyl)-4-(4-chlorophenyl)-1H-1,2,3-triazole] | 3600 | 1200 | 8 (≈ 24 µM) | 16 (≈ 48.1 µM) | 1 to 2 (≈ 3.01 to 6.01 µM) | 2 (≈ 6.01 µM) | 0.25 (≈ 0.751 µM) | 0.25 (≈ 0.751 µM) | 0.5 (≈ 1.5 µM) | 200
Cc1ncc([N+](=O)[O-])n1CCn1cc(-c2ccc(Cl)c(Cl)c2)nn1 [Compound 4d, 1-(2-(2-methyl-5-nitro-1H-imidazol-1-yl)ethyl)-4-(3,4-dichlorophenyl)-1H-1,2,3-triazole] | 5200 | 2500 | 8 to 16 (≈ 21.8 to 43.6 µM) | 8 to 16 (≈ 21.8 to 43.6 µM) | 1 (≈ 2.72 µM) | 1 (≈ 2.72 µM) | 1 (≈ 2.72 µM) | 1 (≈ 2.72 µM) | 0.5 to 8 (≈ 1.36 to 21.8 µM) | 390
Cc1ccc(-c2cn(CCn3c([N+](=O)[O-])cnc3C)nn2)cc1 [Compound 4e, 1-(2-(2-methyl-5-nitro-1H-imidazol-1-yl)ethyl)-4-(p-tolyl)-1H-1,2,3-triazole] | 3700 | 290 | 2 (≈ 6.4 µM) | 2 (≈ 6.4 µM) | 1 (≈ 3.2 µM) | 1 (≈ 3.2 µM) | 0.5 (≈ 1.6 µM) | 0.5 (≈ 1.6 µM) | 0.5 (≈ 1.6 µM) | 180

— PMC4550478, “Metronidazole-triazole conjugates: Activity against Clostridium difficile and parasites” (European Journal of Medicinal Chemistry, 2015)
